Source: patent publication US20260358340A1, “MATRIX METALLOPROTEINASE 13 SENSITIVE PEPTIDES AND SENSORS” (Julius-Maximilians-Universitaet Wuerzburg, priority 2023, published 2026)

Assays:
Assay type in all cases: biochemical
Settings in all cases: role: inhibitor; substrate FRET peptide
[1] = molecular target: MMP13 (Homo sapiens, UniProt P45452); test: FRET peptide cleavage assay, MMP13 activity and its inhibition
From the text: (§1) A possible application of the peptides is the analysis of protease activity and the effect of substances on it. This can be utilized for understanding the role of proteases in physiological and pathological processes as well as for targeting proteases for disease diagnosis or treatment. […] 7-Methoxycoumain-4-acetic acid (Mca) is a is a fluorescent dye with an excitation peak at 322 nm and an emission peak at 381 nm. The absorbance spectrum of 2,4-dinitrophenyl (Dnp) overlaps with the emission spectrum of Mca, therefore it acts as a quencher. As long as both are in close proximity (up to about 5-10 nm), excitation of Mca leads to energy transfer to Dnp. Separation of the fluorophore-quencher pair by hydrolysis of the protease-specific cleavage site between both compounds liberates the fluorescence signal and the rise in its intensity can easily be monitored overtime.

[2] = molecular target: MMP9 (Homo sapiens, UniProt P14780); test: FRET peptide cleavage assay, MMP9 activity and its inhibition
Sequence of MMP9 (P14780 94-707): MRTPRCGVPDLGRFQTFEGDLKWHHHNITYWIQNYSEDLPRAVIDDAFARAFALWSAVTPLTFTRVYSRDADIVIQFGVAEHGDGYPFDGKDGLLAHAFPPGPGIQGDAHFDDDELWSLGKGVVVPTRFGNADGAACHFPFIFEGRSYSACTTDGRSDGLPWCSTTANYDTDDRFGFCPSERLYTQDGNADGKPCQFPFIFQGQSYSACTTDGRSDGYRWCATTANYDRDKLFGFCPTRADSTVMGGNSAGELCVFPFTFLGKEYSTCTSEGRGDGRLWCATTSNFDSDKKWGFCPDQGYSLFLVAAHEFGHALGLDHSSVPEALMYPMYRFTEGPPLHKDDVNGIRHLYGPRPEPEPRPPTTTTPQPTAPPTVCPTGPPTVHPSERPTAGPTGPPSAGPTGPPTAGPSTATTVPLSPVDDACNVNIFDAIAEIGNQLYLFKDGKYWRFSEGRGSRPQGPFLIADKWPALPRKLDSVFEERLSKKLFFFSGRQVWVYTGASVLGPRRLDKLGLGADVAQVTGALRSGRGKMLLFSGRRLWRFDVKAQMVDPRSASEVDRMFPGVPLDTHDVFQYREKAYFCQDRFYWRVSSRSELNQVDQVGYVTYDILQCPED
From the text: as §1, with “overtime. This method is sensitive and time efficient. It allows quantitative assessment of enzymatic activity and the developed fluorogenic substrates are suitable for high throughput screening, for example of protease inhibitors.” for “overtime.”

[3] = molecular target: MMP8 (Homo sapiens, UniProt P22894); test: FRET peptide cleavage assay, MMP8 activity and its inhibition
Sequence of MMP8 (P22894 101-467): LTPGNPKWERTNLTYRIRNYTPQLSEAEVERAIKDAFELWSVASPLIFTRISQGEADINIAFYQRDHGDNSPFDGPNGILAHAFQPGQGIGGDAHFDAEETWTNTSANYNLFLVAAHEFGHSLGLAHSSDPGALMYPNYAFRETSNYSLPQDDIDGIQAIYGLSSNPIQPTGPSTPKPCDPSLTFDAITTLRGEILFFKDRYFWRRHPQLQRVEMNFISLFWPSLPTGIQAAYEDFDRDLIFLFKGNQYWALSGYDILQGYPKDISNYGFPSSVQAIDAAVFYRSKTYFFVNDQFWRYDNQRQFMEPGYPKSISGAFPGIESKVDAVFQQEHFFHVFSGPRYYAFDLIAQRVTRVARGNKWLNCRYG
From the text: as §1, with “overtime. This method is sensitive and time efficient. It allows quantitative assessment of enzymatic activity and the developed fluorogenic substrates are suitable for high throughput screening, for example of protease inhibitors.” for “overtime.”

loss of MMP13 activity [1] | loss of MMP9 activity [2] | loss of MMP8 activity [3] | Compound
complete loss | complete loss | complete loss | O=C(O)CN(CCN(CC(=O)O)CC(=O)O)CC(=O)O [EDTA]
– | complete loss | complete loss | CNC(=O)[C@@H](NC(=O)[C@H](CC(C)C)[C@H](O)C(=O)NO)C(C)(C)C [Marimastat]
complete loss | complete loss | complete loss | CCCCCCCCCCCCOS(=O)(=O)[O-].[Na+] [SDS]
